Laboratory results from paper PMC7377239, “Cardiovascular Effects of Polychlorinated Biphenyls and Their Major Metabolites” (Environmental Health Perspectives, 2020).
Where a name gives a salt, the structure may show the parent alone. Read-outs that look alike come from different tables or passages of the source.

Assays:
[1] = system: iCell endothelial cells (human iPSC-derived ECs); assay: Tube formation (tubulogenesis) assay in iCell endothelial cells, 18 h; format: cell-based; settings: Homo sapiens, Endothelial cell, 18 hr; for activity at 0.1 µM: 0.10 µM
Procedure, shortened: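 Tube formation was measured by calcein AM imaging after overnight compound exposure (37°C, 0.5% DMSO vehicle) of human iPSC-derived ECs, 7,500/well, on reduced-growth-factor Geltrex in starvation medium. Vehicle-normalized data fitted to four-parameter logistic; POD set at one vehicle SD; without response, 100 μM taken as NOAEL.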

HUVECs = assay: High-content imaging cytotoxicity in HUVECs, 24 h; format: cell-based, human; settings: Homo sapiens, HUVEC, 24 h; for viability at 0.01 µM / activity at 0.01 µM / viability at 0.1 µM / activity at 0.1 µM / viability at 1 µM / activity at 1 µM / viability at 10 µM / activity at 10 µM / viability at 100 µM / activity at 100 µM: 0.00 µM = 100.00; for viability at 0.1 µM / activity at 0.1 µM: 0.10 µM
Procedure, shortened: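 Read-out: multiwavelength high-content imaging of Hoechst 33342, MitoTracker Orange and calcein AM after 24 h compound exposure of confluent HUVEC monolayers. POD values were set using a one-SD cutoff from vehicle (0.5% DMSO) means; with no concentration–response, 100μM was assigned as no observable adverse effect level.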

[2] = iPSC-EC tube formation, 0.00 µM control = 100.00, read-out: endo.mtl.18hr
[3] = iPSC-EC tube formation, 0.00 µM control = 100.00, read-out: endo.tlps.18hr
[4] = iPSC-EC tube formation, 0.00 µM control = 100.00, read-out: endo.tta.18hr
[5] = iPSC-EC tube formation, 0.00 µM control = 100.00, read-out: endo.ttl.18hr
[6] = HUVECs, 24 hr, read-out: huvec.cyto.24hr
[7] = HUVECs, 24 hr, read-out: huvec.mito.24hr
[8] = HUVECs, 24 hr, read-out: huvec.mitoint.24hr
[9] = HUVECs, 24 hr, read-out: huvec.nma.24hr
[10] = HUVECs, 24 hrs, read-out: huvec.tc.24hrs

O=S(=O)(O)Oc1ccc(-c2cccc(Cl)c2)cc1Cl [4-yl PCB 11 sulfate]
activity at 0.01 µM [1, 2]: 107% | activity at 0.01 µM [1, 3]: 113% | activity at 0.01 µM [1, 4]: 174% | activity at 0.01 µM [1, 5]: 179% | activity at 0.1 µM [1, 2]: 122% | activity at 0.1 µM [1, 3]: 98.8% | activity at 0.1 µM [1, 4]: 119% | activity at 0.1 µM [1, 5]: 124% | activity at 1 µM [1, 2]: 113% | activity at 1 µM [1, 3]: 103% | activity at 1 µM [1, 4]: 124% | activity at 1 µM [1, 5]: 128% | activity at 10 µM [1, 2]: 94.3% | activity at 10 µM [1, 3]: 82.5% | activity at 10 µM [1, 4]: 91.7% | activity at 10 µM [1, 5]: 93.7% | activity at 100 µM [1, 2]: 68.5% | activity at 100 µM [1, 3]: 27.8% | activity at 100 µM [1, 4]: 26.5% | activity at 100 µM [1, 5]: 25.6% | minimal effective concentration ([1]; iPSC-EC tube formation, top concentration 100.00 µM, read-out: endo.mtl.18hr POD): 25.3 µM | minimal effective concentration ([1]; iPSC-EC tube formation, top concentration 100.00 µM, read-out: endo.tlps.18hr POD): 12.7 µM | minimal effective concentration ([1]; iPSC-EC tube formation, top concentration 100.00 µM, read-out: endo.tta.18hr POD): 21 µM | minimal effective concentration ([1]; iPSC-EC tube formation, top concentration 100.00 µM, read-out: endo.ttl.18hr POD): 25.6 µM | viability at 0.01 µM (HUVECs; [6]): 97.3% | activity at 0.01 µM (HUVECs; [7]): 95.5% | activity at 0.01 µM (HUVECs; [8]): 95.8% | activity at 0.01 µM (HUVECs; [9]): 97.3% | viability at 0.1 µM (HUVECs; [6]): 86.8% | activity at 0.1 µM (HUVECs; [7]): 85.9% | activity at 0.1 µM (HUVECs; [8]): 118% | activity at 0.1 µM (HUVECs; [9]): 104% | viability at 1 µM (HUVECs; [6]): 97.8% | activity at 1 µM (HUVECs; [7]): 96.6% | activity at 1 µM (HUVECs; [8]): 99.3% | activity at 1 µM (HUVECs; [9]): 97% | viability at 10 µM (HUVECs; [6]): 108% | activity at 10 µM (HUVECs; [7]): 107% | activity at 10 µM (HUVECs; [8]): 93.5% | activity at 10 µM (HUVECs; [9]): 93.9% | viability at 100 µM (HUVECs; [6]): 58.3% | activity at 100 µM (HUVECs; [7]): 58.9% | activity at 100 µM (HUVECs; [8]): 54.2% | activity at 100 µM (HUVECs; [9]): 75.6% | minimal effective concentration (HUVECs; HUVECs, 24 hr, top concentration 100.00 µM, read-out: huvec.cyto.24hr POD): 48.8 µM | minimal effective concentration (HUVECs; HUVECs, 24 hr, top concentration 100.00 µM, read-out: huvec.mito.24hr POD): 45.1 µM | minimal effective concentration (HUVECs; HUVECs, 24 hr, top concentration 100.00 µM, read-out: huvec.mitoint.24hr POD): 10.8 µM | minimal effective concentration (HUVECs; HUVECs, 24 hr, top concentration 100.00 µM, read-out: huvec.nma.24hr POD): 2.98 µM | viability at 0.01 µM (HUVECs; [10]): 97.3% | viability at 0.1 µM (HUVECs; [10]): 86.8% | viability at 1 µM (HUVECs; [10]): 97.8% | viability at 10 µM (HUVECs; [10]): 108% | viability at 100 µM (HUVECs; [10]): 59.1% | minimal effective concentration (HUVECs; HUVECs, 24 hrs, top concentration 100.00 µM, read-out: huvec.tc.24hrs POD): 48.8 µM

Oc1ccc(-c2ccc(Cl)cc2)cc1 [4'-OH-PCB 3]
minimal effective concentration ([1]; endothelial cells (endo), tube formation mtl, read-out: POD endo.mtl.18hr): 1.21 µM | minimal effective concentration ([1]; endothelial cells (endo), tube formation tlps, read-out: POD endo.tlps.18hr): 0.19 µM | minimal effective concentration ([1]; endothelial cells (endo), tube formation tta, read-out: POD endo.tta.18hr): 1.16 µM | minimal effective concentration ([1]; endothelial cells (endo), tube formation ttl, read-out: POD endo.ttl.18hr): 1.12 µM | minimal effective concentration (HUVECs; cyto, 24 hr, read-out: POD huvec.cyto.24hr): 7.01 µM | minimal effective concentration (HUVECs; mito, 24 hr, read-out: POD huvec.mito.24hr): 3.9 µM | minimal effective concentration (HUVECs; mitoint, 24 hr, read-out: POD huvec.mitoint.24hr): 11.2 µM | minimal effective concentration (HUVECs; nma, 24 hr, read-out: POD huvec.nma.24hr): 6.91 µM | minimal effective concentration (HUVECs; tc, 24 hr, read-out: POD huvec.tc.24hr): 7.01 µM
